We go through 4 compounds from article PMC8427641 (ACS Omega, 2021).

In this experiment the target is T1, α-amylase (Homo sapiens, UniProt P04746).
T1 sequence (P04746 16-511): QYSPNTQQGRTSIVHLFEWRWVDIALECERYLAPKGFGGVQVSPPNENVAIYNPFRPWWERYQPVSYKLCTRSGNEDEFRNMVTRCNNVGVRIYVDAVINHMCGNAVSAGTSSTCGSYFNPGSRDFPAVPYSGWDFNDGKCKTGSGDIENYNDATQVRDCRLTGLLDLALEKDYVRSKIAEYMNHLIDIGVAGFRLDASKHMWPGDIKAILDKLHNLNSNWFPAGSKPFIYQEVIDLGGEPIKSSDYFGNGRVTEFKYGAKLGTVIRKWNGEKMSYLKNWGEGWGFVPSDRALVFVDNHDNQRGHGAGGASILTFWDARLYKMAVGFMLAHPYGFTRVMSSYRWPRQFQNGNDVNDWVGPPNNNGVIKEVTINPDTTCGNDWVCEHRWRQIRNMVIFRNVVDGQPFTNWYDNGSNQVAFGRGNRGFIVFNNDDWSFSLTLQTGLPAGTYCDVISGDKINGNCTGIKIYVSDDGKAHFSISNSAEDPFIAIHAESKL
In words: α-Amylase inhibition assay. Format: biochemical.
The term IC50 denotes the concentration at which inhibition is half-maximal. A low value points to greater potency. The compound `COc1cc(-c2nc3cc(Cl)ccc3[nH]2)ccc1OCc1ccccc1` [Compound 24, 5-Chloro-2-(4^′-(benzyloxy)-3^′-methoxyphenyl)-1H-benzo[d]imidazole] returned an IC50 of 2160 ± 20 nM.

On to `Clc1ccc2[nH]c(-c3cccc(OCc4ccccc4)c3)nc2c1` [Compound 29, 5-Chloro-2-(3^′-(benzyloxy)phenyl)-1H-benzo[d]imidazole], for which the IC50 was 2470 ± 110 nM.

In turn, `Cc1cc2nc(-c3ccc(OCc4ccccc4)cc3)[nH]c2cc1C` [Compound 30, 5,6-Dimethyl-2-(4^′-(benzyloxy)phenyl)-1H-benzo[d]imidazole] gave an IC50 of 2160 ± 70 nM.

In turn, `Fc1ccc2[nH]c(-c3ccc(OCc4ccccc4)cc3)nc2c1` [Compound 31, 5-Fluoro-2-(4^′-(benzyloxy)phenyl)-1H-benzo[d]imidazole] registered an IC50 of 2150 ± 60 nM.
